The results in this text go back to ChEMBL document CHEMBL3046927, “Synthesis and herbicidal activity of novel 5-chloro-3-fluoro-2-phenoxypyridines with a 1,3,4-oxadiazole ring” (J Pestic Sci, 2011).

Structures are written as SMILES.

One data set has as its system Triticum aestivum. As to the kind of experiment: Phytotoxicity against Triticum aestivum (wheat) plants assessed as crop damage at 125 g ai/ha measured after 3 weeks post compound treatment. Format: organism-based. The following applies: in vivo, 504 h.
For a further data set, the system named is Sorghum halepense. As to the kind of experiment: Post-emergence herbicidal activity against Sorghum halepense (Johnson grass) at 125 g ai/ha measured after 3 weeks post compound treatment. In kind it is functional.
For the next data set, the system named is Echinochloa crus-galli. Kind of data set: Post-emergence herbicidal activity against Echinochloa crus-galli (barnyard grass) at 125 g ai/ha measured after 3 weeks post compound treatment. Format: functional.
Another data set concerns Avena fatua. Kind of data set: Post-emergence herbicidal activity against Avena fatua at 125 g ai/ha measured after 3 weeks post compound treatment. In kind it is functional.
The subject of the next data set is Hordeum vulgare. As to the kind of experiment: Phytotoxicity against Hordeum vulgare (barley) plants assessed as crop damage at 125 g ai/ha measured after 3 weeks post compound treatment. Format: organism-based. The following applies: in vivo, 504 h.

Consider `C[C@@H](Oc1ccc(Oc2ncc(Cl)cc2F)cc1)c1nnc(SCC(=O)O)o1`, for which the Activity came to 0% in the data set on Triticum aestivum; 45% in the data set with Sorghum halepense; 60% in the data set with Echinochloa crus-galli; 50% in the data set with Avena fatua; 15% in the data set with Hordeum vulgare.

Consider `CC(O)CSc1nnc([C@@H](C)Oc2ccc(Oc3ncc(Cl)cc3F)cc2)o1` (stereo not given in full), for which the Activity in the data set with Triticum aestivum was found to be 0%; in the data set with Sorghum halepense, 30%; in the data set on Echinochloa crus-galli, 40%; in the data set with Avena fatua it was 35%; with Hordeum vulgare, 0%.

For `CCOC(=O)Sc1nnc([C@@H](C)Oc2ccc(Oc3ncc(Cl)cc3F)cc2)o1`, the Activity in the data set on Triticum aestivum was found to be 0%; in the data set on Sorghum halepense, 40%; in the data set on Echinochloa crus-galli, 60%; with Avena fatua it was 45%; in the data set with Hordeum vulgare it was 0%.

Consider `CCCCCSc1nnc([C@@H](C)Oc2ccc(Oc3ncc(Cl)cc3F)cc2)o1`, for which the Activity with Triticum aestivum stood at 0%; with Sorghum halepense, 50%; with Echinochloa crus-galli, 70%; in the data set on Avena fatua, 55%; in the data set on Hordeum vulgare, 5%.

For the compound `C[C@@H](Oc1ccc(Oc2ncc(Cl)cc2F)cc1)c1nnc(SCc2ccc(Cl)nc2)o1`, the Activity was determined as 0% in the data set with Triticum aestivum; 30% in the data set with Sorghum halepense; 40% with Echinochloa crus-galli; 30% with Avena fatua; 0% in the data set with Hordeum vulgare.

`C[C@@H](Oc1ccc(Oc2ncc(Cl)cc2F)cc1)c1nnc(SCC(N)=O)o1`: the Activity in the data set with Triticum aestivum worked out at 0%; in the data set on Sorghum halepense, 40%; in the data set on Echinochloa crus-galli, 45%; in the data set with Avena fatua, 40%; with Hordeum vulgare, 0%.

Turning to `C[C@@H](Oc1ccc(Oc2ncc(Cl)cc2F)cc1)c1nnc(SC(=O)c2ccccc2)o1`, the Activity worked out at 0% with Triticum aestivum; 40% in the data set on Sorghum halepense; 55% in the data set with Echinochloa crus-galli; 35% in the data set on Avena fatua; 0% with Hordeum vulgare.

For `CCCCSc1nnc([C@@H](C)Oc2ccc(Oc3ncc(Cl)cc3F)cc2)o1`, the Activity with Triticum aestivum was 5%; in the data set with Sorghum halepense, 55%; in the data set on Echinochloa crus-galli, 80%; with Avena fatua, 65%; in the data set on Hordeum vulgare, 10%.

Take `C#CCOC(=O)[C@@H](C)Oc1ccc(Oc2ncc(Cl)cc2F)cc1` [CLODINAFOP PROPARGYL]: the Activity in the data set with Triticum aestivum is recorded as 0%; in the data set with Sorghum halepense it was 80%; in the data set with Echinochloa crus-galli it was 100%; in the data set on Avena fatua it was 85%; with Hordeum vulgare, 35%.

In the case of `C[C@@H](Oc1ccc(Oc2ncc(Cl)cc2F)cc1)c1nnc(SCc2ccccc2)o1`, the Activity in the data set with Triticum aestivum is reported as 0%; in the data set with Sorghum halepense, 20%; with Echinochloa crus-galli, 35%; in the data set with Avena fatua, 25%; in the data set with Hordeum vulgare it was 0%.

Turning to `CCSc1nnc([C@@H](C)Oc2ccc(Oc3ncc(Cl)cc3F)cc2)o1`, the Activity with Triticum aestivum came to 5%; in the data set with Sorghum halepense it was 60%; in the data set with Echinochloa crus-galli, 85%; in the data set on Avena fatua, 75%; with Hordeum vulgare it was 15%.

With `CC(Sc1nnc([C@@H](C)Oc2ccc(Oc3ncc(Cl)cc3F)cc2)o1)C(=O)O` (stereo not given in full), the Activity in the data set on Triticum aestivum amounted to 0%; in the data set on Sorghum halepense, 60%; in the data set on Echinochloa crus-galli, 70%; with Avena fatua, 70%; with Hordeum vulgare, 15%.

As for `C#CCSc1nnc([C@@H](C)Oc2ccc(Oc3ncc(Cl)cc3F)cc2)o1`, the Activity in the data set on Triticum aestivum is 0%; in the data set with Sorghum halepense it was 80%; in the data set with Echinochloa crus-galli, 100%; in the data set on Avena fatua, 95%; with Hordeum vulgare, 0%.

Turning to `CSc1nnc([C@@H](C)Oc2ccc(Oc3ncc(Cl)cc3F)cc2)o1`, the Activity came to 5% in the data set on Triticum aestivum; 60% in the data set with Sorghum halepense; 80% in the data set on Echinochloa crus-galli; 70% in the data set with Avena fatua; 15% in the data set on Hordeum vulgare.
